In US9867795B2, “Nitrated lipids and methods of making and using thereof” (The UAB Research Foundation, priority 2004, dated 2018):

Tested on: human vascular endothelial cells and macrophages
Experiment: Whole Human Genome Oligo Array gene expression
Format: cell-based
Parameters: CCNE1 down-regulated / CAMK1 down-regulated / TCF4 down-regulated / PPARGC1B down-regulated / RB1 down-regulated / TNF down-regulated / TYK2 down-regulated / STAT1 down-regulated / CAV3 down-regulated / EDARADD down-regulated / DAPK2 down-regulated / CASP8AP2 down-regulated / ITR down-regulated / RAC2 down-regulated / CDC2 down-regulated / CDC42 down-regulated / CCND3 down-regulated / PLAU down-regulated / EGR2 down-regulated / ADRB2 down-regulated / VASP down-regulated / FDPS down-regulated / IL11 down-regulated / AIF1 down-regulated / TGFB1 down-regulated / PIK3CB down-regulated / PTGS1 down-regulated / IRS1 down-regulated / TIMP2 down-regulated / PTGES2 down-regulated / PDGFRA down-regulated / TLR2 down-regulated / E2F2 down-regulated / RACGAP1 down-regulated / LDLR down-regulated / NCOR2 down-regulated / NCR1 down-regulated / CARD9 down-regulated / SRF down-regulated / PDGFA down-regulated / FLJ23091 down-regulated / BCL2A1 down-regulated / TIMP1 down-regulated / PDGFC down-regulated / TIMP3 down-regulated / ARHGEF1 down-regulated / FN1 down-regulated / MMP19 down-regulated / JUNB down-regulated / PPARD down-regulated / MYLK down-regulated / TGFBI down-regulated / ILK down-regulated / MAPKAPK3 down-regulated / ROCK1 down-regulated / IGF1 down-regulated / VEGFB down-regulated / ECGF1 down-regulated / GADD45A up-regulated / CASP1 up-regulated / CASP4 up-regulated / CCNA1 up-regulated / JUN up-regulated / CASP3 up-regulated / GADD45B up-regulated / AATK up-regulated / AMID up-regulated / IL10RA up-regulated / GADD45G up-regulated / IRS2 up-regulated / HO-1, heme oxygenase-1 up-regulated: dose or concentration left out as unconfirmed
Settings: 24 hours
Method: The nitroalkenes of the present invention also display regulatory actions towards the expression of genes related to inflammatory responses, cell growth, cell differentiation, cell signaling, cell death (apoptosis) and metabolism. For example, nitrolinoleate regulates gene expression in human vascular endothelial cells and macrophages. Cells were stimulated with vehicle and linoleic acid (2.5 μM, the latter two treatments as controls) and LNO2O ([…]) for 24 hours. The total RNA was purified with a Qiagen Kit and analyzed with a Whole Human Genome Oligo Array (G4112A, 41K Genes, Agilent). […] In contrast, the native (precursor) fatty acid, linoleic acid, only regulates 14 genes, with an up-regulation of 5 genes and the down-regulation of 9 genes.

[1] = LNO2O 2.5 mM, linoleic acid 2.5 μM

10-nitro-9,12-octadecadienoic acid and 12-nitro-9,12-octadecadienoic acid [LNO2]
AATK up-regulated: 1.503
AMID up-regulated: 8.362
CASP1 up-regulated: 2.572
CASP3 up-regulated: 1.689
CASP4 up-regulated: 2.57
CCNA1 up-regulated: 2.558
GADD45A up-regulated: 2.823
GADD45B up-regulated: 1.674
GADD45G up-regulated: 3.155
HO-1, heme oxygenase-1 up-regulated: 4.086
IL10RA up-regulated: 3.173
IRS2 up-regulated: 3.243
JUN up-regulated: 2.454
number of genes down-regulated [1]: > 3000 genes
number of genes regulated [1]: > 5000 genes
number of genes up-regulated [1]: > 2300 genes
ADRB2 down-regulated (p < 0.05): 2.04 fold
AIF1 down-regulated (p < 0.05): 3.95 fold
ARHGEF1 down-regulated (p < 0.05): 1.64 fold
BCL2A1 down-regulated (p < 0.05): 3.50 fold
CAMK1 down-regulated (p < 0.05): 2.24 fold
CARD9 down-regulated (p < 0.05): 3.33 fold
CASP8AP2 down-regulated (p < 0.05): 1.52 fold
CAV3 down-regulated (p < 0.05): 1.76 fold
CCND3 down-regulated (p < 0.05): 1.51 fold
CCNE1 down-regulated (p < 0.05): 1.58 fold
CDC2 down-regulated (p < 0.05): 2.75 fold
CDC42 down-regulated (p < 0.05): 1.65 fold
DAPK2 down-regulated (p < 0.05): 1.73 fold
E2F2 down-regulated (p < 0.05): 3.70 fold
ECGF1 down-regulated (p < 0.05): 1.73 fold
EDARADD down-regulated (p < 0.05): 1.69 fold
EGR2 down-regulated (p < 0.05): 2.65 fold
FDPS down-regulated (p < 0.05): 2.46 fold
FLJ23091 down-regulated (p < 0.05): 1.74 fold
FN1 down-regulated (p < 0.05): 3.33 fold
IGF1 down-regulated (p < 0.05): 1.54 fold
IL11 down-regulated (p < 0.05): 2.02 fold
ILK down-regulated (p < 0.05): 2.94 fold
IRS1 down-regulated (p < 0.05): 2.40 fold
ITR down-regulated (p < 0.05): 1.68 fold
JUNB down-regulated (p < 0.05): 1.60 fold
LDLR down-regulated (p < 0.05): 1.77 fold
MAPKAPK3 down-regulated (p < 0.05): 2.18 fold
MMP19 down-regulated (p < 0.05): 1.58 fold
MYLK down-regulated (p < 0.05): 3.13 fold
NCOR2 down-regulated (p < 0.05): 1.59 fold
NCR1 down-regulated (p < 0.05): 2.30 fold
PDGFA down-regulated (p < 0.05): 2.27 fold
PDGFC down-regulated (p < 0.05): 1.72 fold
PDGFRA down-regulated (p < 0.05): 2.36 fold
PIK3CB down-regulated (p < 0.05): 1.93 fold
PLAU down-regulated (p < 0.05): 7.58 fold
PPARD down-regulated (p < 0.05): 3.12 fold
PPARGC1B down-regulated (p < 0.05): 2.20 fold
PTGES2 down-regulated (p < 0.05): 1.59 fold
PTGS1 down-regulated (p < 0.05): 3.95 fold
RAC2 down-regulated (p < 0.05): 2.47 fold
RACGAP1 down-regulated (p < 0.05): 2.35 fold
RB1 down-regulated (p < 0.05): 2.06 fold
ROCK1 down-regulated (p < 0.05): 1.59 fold
SRF down-regulated (p < 0.05): 1.56 fold
STAT1 down-regulated (p < 0.05): 1.74 fold
TCF4 down-regulated (p < 0.05): 2.63 fold
TGFB1 down-regulated (p < 0.05): 2.46 fold
TGFBI down-regulated (p < 0.05): 9.80 fold
TIMP1 down-regulated (p < 0.05): 3.62 fold
TIMP2 down-regulated (p < 0.05): 1.92 fold
TIMP3 down-regulated (p < 0.05): 2.27 fold
TLR2 down-regulated (p < 0.05): 1.89 fold
TNF down-regulated (p < 0.05): 2.01 fold
TYK2 down-regulated (p < 0.05): 2.00 fold
VASP down-regulated (p < 0.05): 4.85 fold
VEGFB down-regulated (p < 0.05): 1.51 fold
